This note sets out measurements from patent US20060263346A1, “Combined pharmaceutical preparations for the treatment of cancer, containing glutaminase and antineoplastic anthracyclines or platinum compounds” (priority 2003, published 2006).

Assay type in all cases: cell-based
Assay [1] has as its system lung tumor (NCI-H23) cells. Put plainly: Sulforhodamine in vitro cell growth test, lung tumor cells NCI-H23. The following applies: 48 h.
Procedure: (§1) Cell lines from tumors of the breast (MCF7), lung (NCI-H460, A549), colon (SW-60, HT29) and CNS (SF-539) were used for the test. The tumor cells were cultured in RPMI 1640 medium containing 7.5% foetal calf serum at 37° C. and 5% CO2. After the cells had grown for 24 hours, they were incubated with the substances to be tested for 48 hours.
(§2) The antineoplastic agents used for the experiments were obtained from Sigma in cell culture quality.
(§3) A Pseudomonas 7A glutaminase-asparaginase modified with polyethylene glycol (DE 41 40 003 A1, WO 94/13817 A1 and WO 02/31498 A2) was used as the glutaminase.
(§4) After a 48 hour incubation period cell growth was determined by means of the absorption of the bound sulforhodamine dye at 575 nm. The percentage growth was calculated as follows: [formula] in which PW denotes percentage growth, C denotes untreated control cells, T denotes the amount of treated cells and the indices 0 and t denote the amount of cells at time 0 and after 48 hours.
For assay [2], the system named is breast tumor (MCF7) cells. Put plainly: Sulforhodamine in vitro cell growth test, breast tumor cells MCF7. Conditions: 48 h.
Procedure: as §1, §2, §3, §4
In another assay the test system is lung tumor (A549) cells. Put plainly: Sulforhodamine in vitro cell growth test, lung tumor cells A549. The following applies: 48 h.
Another assay deals with colon tumor (HT29) cells. Put plainly: Sulforhodamine in vitro cell growth test, colon tumor cells HT29. Conditions: 2 μg/ml cis-platinum alone, 48 h.

Procedure for colon tumor (HT29) cells: as §1, §2, §3, §4
Procedure for lung tumor (A549) cells: as §1, §2, §3, §4

Compound `N[C@@H](Cc1ccc(N(CCCl)CCCl)cc1)C(=O)O` [Melphalan, melphalan] registered a tumor growth in assay [1] (68 μg/ml melphalan alone) of 34%.
Consider `N.N.[Cl][Pt][Cl]` [Cis-platinum, cis-platinum], for which the tumor cell growth was 86% in assay [2] (2 μg/ml cis-platinum alone), 41% in the assay on lung tumor (A549) cells (2 μg/ml cis-platinum alone) and 65% in the assay with colon tumor (HT29) cells.
As for `COc1cc([C@@H]2c3cc4c(cc3[C@@H](O[C@@H]3O[C@@H]5CO[C@@H](C)O[C@H]5[C@H](O)[C@H]3O)[C@H]3COC(=O)[C@H]23)OCO4)cc(OC)c1O` [Etoposide, etoposide], the “growth compared to the control” value (in assay [2] (2.3 μg/ml etoposide alone); in the assay with lung tumor (A549) cells (2.3 μg/ml etoposide alone); in assay [1] (2.3 μg/ml etoposide alone)) was “about 40%” in each case.
On to `CO[C@@]12[C@H](COC(N)=O)C3=C(C(=O)C(C)=C(N)C3=O)N1C[C@@H]1N[C@@H]12` [Mitomycin, mitomycin], for which, in assay [2] (0.026 μg/ml mitomycin alone), the “growth compared to the control” value is 66%.
